Experiment [1] concerns ST88-14 cells. In words: soft agar assay, anchorage-independent growth. Conditions: Homo sapiens, 504 h, 3 weeks, read-out: inhibition of colony formation. The format is cell-based. As to the method: (§1) Noble agars (2% and 0.6%; Difco, Sparks, Md.) were prepared in double-distilled water and autoclaved. The 2% agar was melted and mixed with medium (DMEM X2 with 20% FCS, 100 μg/mL penicillin, and […]) and the mixture (50 μL) was placed in 96-well plates to provide the base agar (at a final concentration of 1%).
(§2) To determine whether FTS inhibited the transforming activity associated with NF-1-deficiency and to determine the effect of FTS on anchorage-independent growth, soft agar assays were performed. ST88-14 and STS26T cells were plated in soft agar and then treated with 0.1% DMSO as a control or with FTS (25 μM, 50 μM, or 75 μM) and grown for 3 weeks or 2 weeks, respectively. […] FTS inhibited colony formation of both cell lines; in the presence of 50 μM FTS, for example, colony formation was inhibited by 60% in STS26T cells and by 57% in ST88-14 cells. In the presence of 75 μM FTS, colony formation was inhibited by 84% and 87% in ST88-14 and STS26T cells, respectively.

The test system of experiment [2] is STS26T cells. In words: soft agar assay, anchorage-independent growth. Format: cell-based. Conditions: Homo sapiens, STS-26T, 336 h, 2 weeks, read-out: inhibition of colony formation. As for the experimental part:
as §1, §2

The subject of experiment [3] is phospho-ERK. In words: serum-stimulated phospho-ERK, kinetic study. The format is cell-based, human. As to the method:
(§3) Unless otherwise indicated, cells were lysed 48 hours after being treated with lysis buffer, as described in Haklai, et al., supra. […] Protein bands were visualized by ECL and quantified by densitometry with Image Master VDS-CL (Amersham) using TINA 2.0 software (Ray Tests). To obtain reliable comparisons between replicated experiments for statistical analysis, a standardization procedure was used, in which the density of each given protein band as recorded with its specific Ab, was normalized. […] The standard average density was defined as 1.0, and each of the individually determined bands was related to this value. […] Actin cytoskeletal elements were labeled with rhodamine-phalloidin, and digital fluorescence images were collected on a Zeiss LSM 510 confocal microscope fitted with fluorescein and rhodamine filters, as described in Gana-Weisz, M., et al., supra.
First, the time courses of serum-stimulated GTP loading of Ras and serum-stimulated activation of signals downstream of Ras were determined. […]

Experiment [4] has as its system phospho-Akt. Briefly: steady-state phospho-Akt, Western immunoblotting. Format: cell-based, human. As to the method: as §3
Next, to determine whether down-regulation of active Ras by FTS was accompanied by inhibition of Ras signaling, the effect of FTS on steady-state levels of phospho-ERK, phospho-Akt, and RalA-GTP as read-outs of the three prominent Ras pathways, Ras/Raf/MEK/ERK, Ras/PI3K/Akt, and Ras/RalGEF/RalA, respectively, was examined. […]

For orientation: inhibition means the share of the control response that was lost under treatment.

Regarding `CC(C)=CCC/C(C)=C/CC/C(C)=C/CSc1ccccc1C(=O)O` [FTS, S-farnesylthiosalicylic acid], the inhibition at 50 µM was determined as 57% in experiment [1] (50 μM FTS) and 60% in experiment [2] (50 μM FTS). Also, the inhibition at 75 µM in experiment [1] (75 μM FTS) is 84%; in experiment [2] (75 μM FTS), 87%. Besides, the “serum-stimulated increase in phospho-ERK” value in experiment [3] (STS26T cells, serum-starved 24 hours, stimulated with 10% serum) is given as “inhibited”. Also, the “serum-stimulated increase in phosphor-ERK” value in experiment [3] (all NF-1 cell lines (T265P21, ST88-14, 90-8)) is reported as “reduced”. Besides, the “steady-state phospho-Akt” value in experiment [4] (all NF-1 cell lines) is on record as “significant reduction”. Also, the “increase in phosphor-Akt” value in experiment [4] (non-NF-1 STS26T cells, steady state) is 10%-20%.
